This note sets out measurements from patent US6465433B1, “Boronic ester and acid compounds, synthesis and uses” (Millennium Pharmaceuticals, Inc., priority 1994, dated 2002).

Where a SMILES comes first, the peptide text is derived from it. The star is where a group is joined. Cbz = O=C(OCc1ccccc1)*

One assay relates to NF-κB. The assay is described as follows: Activation of NF-κB, electrophoretic mobility shift assay in TNF-α stimulated MG63 osteosarcoma cells. The note with it: pretreatment for 1 hour, PRDII probe, FIG. 2. The assay is classed as cell-based. The procedure: Compounds can be tested for their ability to inhibit the activation of NF-κB by means of a DNA binding assay (Palombella, et al., Cell 78:773 (1994)). Whole-cell extracts are prepared from untreated or TNF-α treated cells that have been pretreated for 1 hour with the test compound. The DNA binding activity of NF-κB is measured by an electrophoretic mobility shift assay using the PRDII probe from the human IFN-β gene promoter.
This assay was performed as previously described (Palombella, et al. Cell, 78:773-785 (1994)). MG63 osteosarcoma cells were stimulated by treatment with TNF-α for the designated times. Whole cell extracts were prepared and analyzed by electrophoretic mobility shift assay using the PRDII probe from the human IFN-β gene promoter.

In assay [1] the target is SDS-activated 20S proteasome from rabbit muscle (Oryctolagus cuniculus, UniProt G1SU71+G1T4Q9). The assay can be described thus: Kinetic assay: inhibition of the 20S proteasome. The assay is classed as biochemical. Here is the method:
(§1) P, AA^1, AA^2, AA^3, and Z^1 and Z^2 represent the structures present on formula (1) or (2). The protocol for the kinetic assay described in Tables II-V is as described in Rock et al., Cell 78:761-771 (1994). In these tables, Ki values are reported, which are dissociation constants for the equilibrium that is established when enzyme and inhibitor interact to form the enzyme:inhibitor complex. The reactions were performed using SDS-activated 20S proteasome from rabbit muscle. The substrate used was Suc-LLVY-AMC.

Another assay has as its target Cathepsin B (Homo sapiens, UniProt P07858). The assay is described as follows: Kinetic assay: inhibition of Cathepsin B. The class given is biochemical. The conditions noted are these: Table IV.
Excerpt: [Worded in the source for another target; this target is reported under the same test.] as §1, with “Table II summarizes results from kinetic experiments that measured the inhibition of the 20S proteasome by compounds having the formula of compound (1) or (2). P,” for “P,”

For a further assay, the target named is T1, Human Leukocyte Elastase (Homo sapiens, UniProt P08246).
T1 sequence (P08246 30-267): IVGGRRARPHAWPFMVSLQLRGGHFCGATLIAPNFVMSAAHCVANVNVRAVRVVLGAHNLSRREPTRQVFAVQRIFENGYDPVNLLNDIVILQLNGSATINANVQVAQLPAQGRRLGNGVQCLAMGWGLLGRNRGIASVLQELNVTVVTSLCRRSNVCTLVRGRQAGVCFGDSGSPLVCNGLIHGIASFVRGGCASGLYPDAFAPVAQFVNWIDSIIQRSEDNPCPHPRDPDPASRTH
The assay can be described thus: Kinetic assay: inhibition of Human Leukocyte Elastase. The assay is classed as biochemical. The note with it: Table V.

A further assay has as its target T2, Cathepsin G (Homo sapiens, UniProt P08311).
T2 sequence (P08311 21-244): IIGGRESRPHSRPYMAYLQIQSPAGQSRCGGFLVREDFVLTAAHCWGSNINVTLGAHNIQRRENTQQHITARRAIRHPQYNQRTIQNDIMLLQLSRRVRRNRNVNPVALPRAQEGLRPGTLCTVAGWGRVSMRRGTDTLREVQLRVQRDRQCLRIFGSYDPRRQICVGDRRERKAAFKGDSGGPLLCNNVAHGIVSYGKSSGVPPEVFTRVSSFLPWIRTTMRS
The assay is described as follows: Kinetic assay: inhibition of Cathepsin G. The note with it: Table V. The class given is biochemical.

A further assay relates to C2C12 cells. The assay can be described thus: Inhibition of protein degradation in C2C12 cells. The class given is cell-based, mouse. The conditions noted are these: 35S-methionine labelled cells, percent decrease in TCA soluble radioactivity, media with 50% serum. Here is the method: One approach to testing drug candidates for their ability to inhibit the ATP-ubiquitin-dependent degradative process is to measure proteolysis in cultured cells (Rock, et al., Cell 78:761 (1994)). For example, the degradation of long-lived intracellular proteins can be measured in mouse C2C12 myoblast cells. Cells are incubated with ^35S-methionine for 48 hours to label long-lived proteins and then chased for 2 hours with medium containing unlabeled methionine. After the chase period, the cells are incubated for 4 hours in the presence or absence of the test compound. The amount of protein degradation in the cell can be measured by quantitating the trichloroacetic acid soluble radioactivity released from the pre-labeled proteins into the growth medium (an indicator of intracellular proteolysis).
C2C12 cells (a mouse myoblast line) were labelled for 48 hrs with ^35S-methionine. The cells were then washed and preincubated for 2 hrs in the same media supplemented with 2 mM unlabelled methionine. The media was removed and replaced with a fresh aliquot of the preincubation media containing 50% serum, and a concentration of the compound to be tested. The media was then removed and made up to 10% TCA and centrifuged. The TCA soluble radioactivity was counted. Inhibition of proteolysis was calculated as the percent decrease in TCA soluble radioactivity.

For assay [2], the target named is Human Pancreatic Chymotrypsin. The assay is described as follows: Kinetic assay: inhibition of Human Pancreatic Chymotrypsin. The class given is biochemical. The note with it: Table V.
A further assay relates to mice. The assay can be described thus: DTH response (contact sensitivity, ear swelling) in mice. The assay is classed as in vivo, mouse. The conditions noted are these: oral, ear swelling approximately 18 hours after challenge. The source says: Compounds can also be tested for their ability to inhibit a delayed-type hypersensitivity response in mice. Contact hypersensitivity is a manifestation of an in vivo T-cell mediated immune response (Friedmann, Curr. Opinion Immunology, 1:690693 (1989)). Although the exact molecular mechanisms that regulate the cellular interactions and vascular changes involved in the response remain obscure, it is clear that the process is dependent upon the interplay of soluble mediators, adhesion molecules, and the cytokine network (Piguet, et al., J. Exp. Med. 173:673-679 (1991); Nickoloff, et al. J. Invest. Dermatol. 94:151S-157S (1990)). NF-κB, by mediating events such as the production of cytokines and the induction and utilization of cell-surface adhesion molecules, is a central and coordinating regulator involved in immune responses.
Naive nice were sensitized by the application of 20 μL of a 0.5% (v/v) solution of 2,4-dinitrofluorobenzene in 4:1 acetone/olive oil to both of the rear limb footpads. This procedure is performed on two consecutive days, which are referred to as days 0 and 1.
The efferent phase of the contact sensitivity response was elicited on day 5 by the application of 10 μL of a 0.2% (v/v) solution of 2,4-dinitrofluorobenzene in 4:1 acetone/olive oil to both sides of the left ear. The contralateral control ear was treated on both sides with 10 μL of vehicle only. The mice were lightly anaesthetized for this procedure by the intraperitoneal (i.p.) injection of a mixture of ketamine.(80 mg/kg, Henry Schein) and xylazine (16 mg/kg, Henry Schein). […]
Approximately 18 hours after the challenge, ear swelling was determined by measuring both the control and the experimental ear using a Mitutoyo Digital micrometer. The absolute difference in thickness of the experimental (left) ears vs. the control (right) ears was determined for each treatment group. Efficacy was determined by comparing this difference in thickness to the difference calculated for the vehicle control group.

Where [3] appears, read: Table II, SDS-activated 20S proteasome from rabbit muscle, substrate Suc-LLVY-AMC.

With `CSCCC(C=O)NC(=O)C(CC(C)C)NC(=O)C(CC(C)C)NC(C)=O` [MG-102, Ac-L-Leu-L-Leu-L-Met-H, reference compound] (Ac-Leu-Leu-Met-aldehyde; configuration not given here), the NF-κB binding activity result in the assay on NF-κB was “did not inhibit”. In addition, the “activity against the 20S proteasome” value in assay [1] is “inactive”.

Regarding `CC(C)C[C@@H](C=O)NC(=O)[C@H](CC(C)C)NC(=O)[C@H](CC(C)C)NC(=O)OCc1ccccc1` [MG-132, Cbz-L-Leu-L-Leu-L-Leu-H] (Cbz-Leu-Leu-Leu-aldehyde), in the assay with NF-κB, the NF-κB binding activity result is “inhibited”.

As for `CC(=O)N[C@@H](CC(C)C)C(=O)N[C@@H](CC(C)C)C(=O)N[C@H](C=O)CC(C)C` [MG-154, reference compound] (Ac-Leu-Leu-Leu-aldehyde), the values for the Ki (in assay [1] (Table IV); at Cathepsin B) were 66 nM and 5 nM, respectively.

As to `CC(C)CC(C=O)NC(=O)C(CC(C)C)NC(=O)C(Cc1c[nH]c2ccccc12)NC(=O)OCc1ccccc1` (stereo not drawn) [MG-191, reference compound] (Cbz-Trp-Leu-Leu-aldehyde; configuration not given here), the Ki was found to be 0.38 nM in assay [1] (Table IV) and 0.54 nM on Cathepsin B.

Take `CC(C)C[C@H](NC(=O)[C@H](CC(C)C)NC(=O)[C@H](CC(C)C)NC(=O)OCc1ccccc1)B(O)O` [MG-262]: the Ki at Human Leukocyte Elastase was 15 nM; at Cathepsin G, 55 nM; in assay [2], 7 nM; in assay [1] (setting [3]) it was 0.035 nM; in assay [1] (Table IV), 0.035 nM; in assay [1] (Table V), 0.03 nM. Further, the Ki at Cathepsin B came out at 6100 nM. In addition, in the assay on C2C12 cells (Mus musculus, C2C12), the IC50 worked out at 280 nM.

Regarding `CC(C)C[C@H](NC(=O)[C@H](Cc1cccc2ccccc12)NC(=O)OCc1ccccc1)B1O[C@@H]2C[C@@H]3C[C@@H](C3(C)C)[C@]2(C)O1` [MG-267], the Ki on Human Leukocyte Elastase turned out to be 150 nM; on Cathepsin G, 33000 nM; in assay [2], 2300 nM; in assay [1] (setting [3]), 0.1 nM; in assay [1] (Table V), 0.1 nM.

As to `CC(C)C[C@H](NC(=O)[C@H](Cc1cccc2ccccc12)NC(=O)N1CCOCC1)B(O)O` [MG-273, N-(4-Morpholine)carbonyl-β-(1-naphthyl)-L-alanine-L-leucine Boronic Acid], the IC50 in the assay on C2C12 cells (Mus musculus, C2C12) turned out to be 140 nM. Moreover, the Ki in assay [1] (setting [3]) came to 0.18 nM; in assay [1] (Table IV) it was 0.18 nM; at Cathepsin B it was 200000 nM.

Turning to `CC(C)C[C@H](NC(=O)[C@H](Cc1cccc2ccccc12)NS(=O)(=O)c1cccc2cccnc12)B(O)O` [MG-296, N-(8-quinoline)sulfonyl-β-(1-naphthyl)-L-alanine-L-leucine boronic acid], the Ki on Human Leukocyte Elastase came to 36 nM; on Cathepsin G it was 9200 nM; in assay [1] (setting [3]), 1.7 nM; in assay [1] (Table IV) it was 1.7 nM; in assay [1] (Table V), 1.7 nM; on Cathepsin B, 4000 nM. In addition, the IC50 with C2C12 cells (Mus musculus, C2C12) is 738 nM. Further, the “% Inhibition of the DTH response” value with mice (dose 50 mg/kg) worked out at 60%.

Take `CC(C)C[C@H](NC(=O)[C@H](Cc1ccccc1)NC(=O)N1CCOCC1)B(O)O` [MG-309, N-(4-morpholine)carbonyl-L-phenylalanine-L-leucine boronic acid]: the Ki on Human Leukocyte Elastase turned out to be 7000 nM; at Cathepsin G it was 4800 nM; in assay [1] (setting [3]), 0.82 nM; in assay [1] (Table IV) it was 0.82 nM; in assay [1] (Table V), 0.82 nM; on Cathepsin B, 132000 nM. Further, the IC50 in the assay on C2C12 cells (Mus musculus, C2C12) worked out at 210 nM. Also, in the assay on mice (dose 3 mg/kg), the “% Inhibition of the DTH response” value amounted to 40%.

On to `CC(C)C[C@H](NC(=O)[C@H](Cc1ccccc1)NC(=O)c1cnccn1)B(O)O` [MG-341, N-(2-pyrazine)carbonyl-L-phenylalanine-L-leucine boronic acid], for which the IC50 with C2C12 cells (Mus musculus, C2C12) was 69 nM. In addition, the “% Inhibition of the DTH response” value with mice (dose 3 mg/kg) was 90%. This compound also showed a Ki at Cathepsin B of 160000 nM.

Regarding “β-(1-Naphthyl)-L-alanine-L-leucine Boronic Acid [MG-303]”, the IC50 in the assay on C2C12 cells was 340 nM. In addition, the affinity in assay [1] (setting [3]) corresponds to a Ki of 3.9 nM.
